Experimental data reported in paper PMC4277498 (Cell reports, 2014).

Columns and labels:
[1] = system: β-adrenergic receptor endogenously expressed in COS-7 cells; conditions: COS-7 with endogenous β-adrenergic receptor
[2] = system: gpr126 mutant zebrafish; conditions: forskolin-induced cAMP elevation, ref Monk et al., 2009; cited from earlier work

In the case of CC(C)NCC(O)c1ccc(O)c(O)c1 (centres unmarked) [isoprenaline], the “dynamic mass redistribution response (EPIC)” value [1] is reported as “concentration-dependent cellular responses”.

In the case of C=C[C@@]1(C)CC(=O)[C@]2(O)[C@@]3(C)[C@@H](O)CCC(C)(C)[C@@H]3[C@H](O)[C@H](OC(C)=O)[C@@]2(C)O1 [forskolin], the “reversal of peripheral myelination phenotype” value [2] is listed as “reversible”.
